Measurements from US9120805B2, “Substituted pyrrolo[1,2-A]pyrazin-1-ones and pyrazolo[1,5-A]pyrazin-4-ones as inhibitors of tankyrase and poly(ADP-ribose)polymerase activity” (Merck Patent GmbH, priority 2012, dated 2015).

Experiments:
[1] = molecular target: T1, GST-tagged Tankyrase-1 (1023-1327 aa) (Homo sapiens, UniProt O95271); assay: Tankyrase 1 autoparsylation assay (HTRF enzyme assay); format: biochemical
T1 construct: GST-tagged Tankyrase-1 (1023-1327 aa)
Procedure: (§1) Biochemical Activity Testing of Tankyrase 1 and 2: Autoparsylation Assay
(§2) The autoparsylation assay is run in two steps: the enzymatic reaction in which GST-tagged Tankyrase-1, resp Tankyrase-2 transferred biotinylated ADP-ribose to itself from biotinylated NAD as co-substrate and the detection reaction where a time resolved FRET between cryptate labelled anti-GST bound to the GST tag of the enzyme and Xlent® labelled-streptavidin bound the biotin-parsylation residue is analysed. The autoparsylation activity was detectable directly via the increase in HTRF signal.
(§3) The autoparsylation assay is performed as 384-well HTRF® (Cisbio, Codolet, France) assay format in Greiner low volume nb 384-well microtiter plates and is used for high throughput screen. 250 nM GST-tagged Tankyrase-1 (1023-1327 aa), respectively about 250 nM GST-tagged Tankyrase-2 (873-1166 aa) and 5 μM bio-NAD (Biolog, Life science Inst., Bremen, Germany) as co-substrate are incubated in a total volume of 5 μl (50 mM HEPES, 4 mM Mg-chloride, 0.05% Pluronic F-68, 1.4 mM DTT, 0.5% DMSO, pH 7.7) in the absence or presence of the test compound (10 dilution concentrations) for 90 min at 30° C. The reaction is stopped by the addition of 1 μl 50 mM EDTA solution. 2 μl of the detection solution (1.6 μM SA-Xlent® (Cisbio, Codolet, France), 7.4 nM Anti-GST-K® (Eu-labelled anti-GST, Cisbio, Codolet, France) in 50 mM HEPES, 800 mM KF, 0.1% BSA, 20 mM EDTA, 0.1% CHAPS, pH 7.0) are added. After 1 h incubation at room temperature the HTRF is measured with an Envision multimode reader (Perkin Elmer LAS Germany GmbH) at excitation wavelength 340 nm (laser mode) and emission wavelengths 615 nm and 665 nm. The ratio of the emission signals is determined. The full value used is the inhibitor-free reaction. The pharmacological zero value used is XAV-939 (Tocris) in a final concentration of 5 μM. The inhibitory values (IC50) are determined using either the program Symyx Assay Explorer® or Condosseo® from GeneData.

[2] = molecular target: T2, GST-tagged Tankyrase-2 (873-1166 aa) (Homo sapiens, UniProt Q9H2K2); assay: Tankyrase 2 autoparsylation assay (HTRF enzyme assay); format: biochemical
T2 construct: GST-tagged Tankyrase-2 (873-1166 aa)
Procedure: as §1, §2, §3

[3] = tested on: tankyrase 1/2; assay: Cellular inhibition of Tankyrase: increase of Axin2 level in DLD1 cells (Luminex); format: cell-based; settings: 24 hours, read-out: EC50 tankyrase 1/2 (cell assay)
Procedure: Measurement of Cellular Inhibition of Tankyrase
Since Tankyrases have been described to modulate cellular level of Axin2 (Huang et al., 2009; Nature) the increase of Axin2 level is used as read-out for determination of cellular inhibition of Tankyrases in a Luminex based assay.
Cells of the colon carcinoma cell line DLD1 are plated in 96 well plates with 1.5×10^4 cells per well. Next day, cells are treated with a serial dilution of test compound in seven steps as triplicates with a final DMSO concentration of 0.3%. After 24 hours, cells are lysed in lysis buffer (20 mM Tris/HCl pH 8.0, 150 mM NaCl, 1% NP40, 10% Glycerol) and lysates are cleared by centrifugation through a 96 well filter plate (0.65 μm). Axin2 protein is isolated from cell lysates by incubation with a monoclonal anti-Axin2 antibody (R&D Systems #MAB6078) that is bound to fluorescent carboxybeads. Then, bound Axin2 is specifically detected with a polyclonal anti-Axin2 antibody (Cell Signaling #2151) and an appropriate PE-fluorescent secondary antibody. The amount of isolated Axin2 protein is determined in a Luminex^200 machine (Luminex Corporation) according to the manufacturer's instruction by counting 100 events per well. Inhibition of Tankyrase by test compounds results in higher levels of Axin2 which directly correlates with an increase of detectable fluorescence. As controls cells are treated with solvent alone (neutral control) and with a Tankyrase reference inhibitor IWR-2 (3E-06 M) which refers as control for maximum increase of Axin2. For analysis, the obtained data are normalized against the untreated solvent control and fitted for determination of the EC50 values using the Assay Explorer software (Accelrys).

[4] = molecular target: T3, His-tagged Parp-1 (Homo sapiens, UniProt P09874); assay: PARP-1 autoparsylation assay (HTRF); format: biochemical; settings: PARP-1 autoparsylation HTRF assay
T3 construct: purchased Enzo Life Sciences GmbH
Description: Description of the PARP1 Assay
Biochemical Activity Testing of PARP-1: Autoparsylation Assay
The autoparsylation assay is run in two steps: the enzymatic reaction in which
His-tagged Parp-1 transfers biotinylated ADP-ribose/ADP-ribose to itself from biotinylated NAD/NAD as co-substrate and the detection reaction where a time resolved FRET between cryptate labelled anti-His antibody bound to the His tag of the enzyme and Xlent® labelled-streptavidin bound the biotin-parsylation residue is analysed. The autoparsylation activity is detectable directly via the increase in HTRF signal.
The autoparsylation assay is performed as 384-well HTRF® (Cisbio, Codolet, France) assay format in Greiner low volume nb 384-well microtiter plates. 35 nM His-tagged Parp-1 (human, recombinant, Enzo Life Sciences GmbH, Lörrach, Germany) and a mixture of 125 nM bio-NAD (Biolog, Life science Inst., Bremen, Germany) and 800 nM NAD as co-substrate are incubated in a total volume of 6 μl (100 mM Tris/HCl, 4 mM Mg-chloride, 0.01% IGEPAL® CA630, 1 mM DTT, 0.5% DMSO, pH 8, 13 ng/μl activated DNA (BPS Bioscience, San Diego, US)) in the absence or presence of the test compound (10 dilution concentrations) for 150 min at 23° C. The reaction is stopped by the addition of 4 μl of the Stop/detection solution (70 nM SA-Xlent® (Cisbio, Codolet, France), 2.5 nM Anti-His-K® (Eu-labelled anti-His, Cisbio, Codolet, France) in 50 mM HEPES, 400 mM KF, 0.1% BSA, 20 mM EDTA, pH 7.0). After 1 h incubation at room temperature the HTRF is measured with an Envision multimode reader (Perkin Elmer LAS Germany GmbH) at excitation wavelength 340 nm (laser mode) and emission wavelengths 615 nm and 665 nm. The ratio of the emission signals is determined. The full value used is the inhibitor-free reaction. The pharmacological zero value used is Olaparib (LClabs, Woburn, US) in a final concentration of 1 μM. The inhibitory values (IC50) are determined using either the program Symyx Assay Explorer® or Condosseo® from GeneData.

T2 sequence (Q9H2K2 873-1166): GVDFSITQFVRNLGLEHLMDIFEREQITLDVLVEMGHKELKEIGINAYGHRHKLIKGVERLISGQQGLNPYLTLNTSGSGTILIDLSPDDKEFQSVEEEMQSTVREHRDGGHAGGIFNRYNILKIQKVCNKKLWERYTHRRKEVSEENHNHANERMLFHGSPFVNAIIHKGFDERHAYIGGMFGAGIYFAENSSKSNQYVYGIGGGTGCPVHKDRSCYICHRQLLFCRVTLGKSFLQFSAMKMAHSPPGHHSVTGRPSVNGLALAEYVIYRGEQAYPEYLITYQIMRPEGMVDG
T3 sequence (P09874 whole entry): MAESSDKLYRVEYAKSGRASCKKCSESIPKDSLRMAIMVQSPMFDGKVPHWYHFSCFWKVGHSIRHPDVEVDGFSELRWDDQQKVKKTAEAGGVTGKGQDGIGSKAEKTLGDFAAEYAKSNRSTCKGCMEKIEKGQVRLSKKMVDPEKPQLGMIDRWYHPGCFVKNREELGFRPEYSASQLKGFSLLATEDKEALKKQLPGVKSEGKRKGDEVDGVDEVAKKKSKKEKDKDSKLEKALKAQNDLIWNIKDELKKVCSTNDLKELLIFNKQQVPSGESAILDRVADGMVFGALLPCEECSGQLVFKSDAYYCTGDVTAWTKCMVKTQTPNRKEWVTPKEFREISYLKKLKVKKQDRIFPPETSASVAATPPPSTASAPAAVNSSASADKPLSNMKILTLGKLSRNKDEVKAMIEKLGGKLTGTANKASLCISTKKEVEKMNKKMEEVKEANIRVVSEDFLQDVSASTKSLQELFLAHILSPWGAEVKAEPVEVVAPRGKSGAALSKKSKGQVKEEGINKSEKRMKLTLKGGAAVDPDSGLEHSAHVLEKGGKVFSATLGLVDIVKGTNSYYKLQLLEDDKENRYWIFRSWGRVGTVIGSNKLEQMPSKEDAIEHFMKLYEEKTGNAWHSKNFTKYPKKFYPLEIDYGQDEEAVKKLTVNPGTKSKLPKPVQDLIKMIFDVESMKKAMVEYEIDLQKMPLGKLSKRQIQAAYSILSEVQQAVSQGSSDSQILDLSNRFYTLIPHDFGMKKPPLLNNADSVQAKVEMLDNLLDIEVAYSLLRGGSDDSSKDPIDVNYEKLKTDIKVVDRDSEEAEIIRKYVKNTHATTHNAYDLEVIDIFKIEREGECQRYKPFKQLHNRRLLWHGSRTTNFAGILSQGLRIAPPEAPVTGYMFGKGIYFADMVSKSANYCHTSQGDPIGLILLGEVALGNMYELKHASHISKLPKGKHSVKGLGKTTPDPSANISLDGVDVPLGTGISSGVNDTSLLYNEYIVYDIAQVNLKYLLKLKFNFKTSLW
T1 sequence (O95271 1023-1327): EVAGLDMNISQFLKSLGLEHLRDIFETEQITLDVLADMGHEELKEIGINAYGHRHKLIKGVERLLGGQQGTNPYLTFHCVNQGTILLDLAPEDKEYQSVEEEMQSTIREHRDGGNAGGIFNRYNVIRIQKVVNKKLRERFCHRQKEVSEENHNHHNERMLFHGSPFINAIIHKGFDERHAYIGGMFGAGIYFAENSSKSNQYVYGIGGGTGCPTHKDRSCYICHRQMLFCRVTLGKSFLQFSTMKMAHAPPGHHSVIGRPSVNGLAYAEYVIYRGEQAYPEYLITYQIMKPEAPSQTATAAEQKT

IC50 [4] [nM] | Compound | IC50 [1] [nM] | IC50 [2] [nM] | EC50 [3] [nM]
300 to 3000 | O=c1[nH]c(-c2ccc(OCc3ccccc3)cc2)cn2cccc12 [Compound A1, 3-(4-benzyloxy-phenyl)-2H-pyrrolo[1,2-a]pyrazin-1-one] | < 300 | 300 to 3000 | –
300 to 3000 | O=c1[nH]c(-c2cccc(Cl)c2)cn2cccc12 [Compound A3, 3-(3-chloro-phenyl)-2H-pyrrolo[1,2-a]pyrazin-1-one] | 300 to 3000 | 300 to 3000 | –
3000 to 50000 | COc1ccc(-c2cn3cccc3c(=O)[nH]2)cc1OC [Compound A8, 3-(3,4-dimethoxy-phenyl)-2H-pyrrolo[1,2-a]pyrazin-1-one] | 300 to 3000 | 3000 to 50000 | –
3000 to 50000 | O=c1[nH]c(-c2ccc3c(c2)OCO3)cn2cccc12 [Compound A9, 3-benzo[1,3]dioxol-5-yl-2H-pyrrolo[1,2-a]pyrazin-1-one] | 300 to 3000 | 300 to 3000 | –
300 to 3000 | COc1cccc(-c2cn3cccc3c(=O)[nH]2)c1 [Compound A4, 3-(3-methoxy-phenyl)-2H-pyrrolo[1,2-a]pyrazin-1-one] | 300 to 3000 | 300 to 3000 | –
– | Cc1cc2c(=O)[nH]c(-c3ccc(-c4cnn(C)c4)cc3)cn2c1 [Compound A91] | < 300 | 300 to 3000 | 300 to 3000
– | CC(C)(C)c1ccc(-c2cn3nc(C(F)F)cc3c(=O)[nH]2)cc1 [Compound A66, 6-(4-tert-butyl-phenyl)-2-difluoromethyl-5H-pyrazolo[1,5-a]pyrazin-4-one] | < 300 | 300 to 3000 | 300 to 3000
– | COC(=O)c1ccc(-c2cn3cccc3c(=O)[nH]2)cc1 [Compound A28, 4-(1-oxo-1,2-dihydro-pyrrolo[1,2-a]pyrazin-3-yl)-benzoic acid methyl ester] | < 300 | 300 to 3000 | 300 to 3000
300 to 3000 | O=c1[nH]c(-c2ccc(F)cc2)cn2cccc12 [Compound A10, 3-(4-fluoro-phenyl)-2H-pyrrolo[1,2-a]pyrazin-1-one] | 300 to 3000 | 300 to 3000 | –
– | CC(C)(C)c1ccc(-c2cn3nc(CF)cc3c(=O)[nH]2)cc1 [Compound A64, 6-(4-tert-butyl-phenyl)-2-fluoromethyl-5H-pyrazolo[1,5-a]pyrazin-4-one] | < 300 | 300 to 3000 | 300 to 3000
– | O=c1[nH]c(-c2ccc(-c3cnn(CCO)c3)cc2)cn2cccc12 [Compound A32, 3-{4-[1-(2-hydroxy-ethyl)-1H-pyrazol-4-yl]-phenyl}-2H-pyrrolo[1,2-a]pyrazin-1-one] | < 300 | < 300 | 300 to 3000
300 to 3000 | O=c1[nH]c(-c2ccc([N+](=O)[O-])cc2)cn2cccc12 [Compound A6, 3-(4-nitro-phenyl)-2H-pyrrolo[1,2-a]pyrazin-1-one] | < 300 | < 300 | –
– | O=c1[nH]c(-c2ccc(N3CCCC3)cc2)cn2nccc12 [Compound A17, 6-(4-pyrrolidin-1-yl-phenyl)-5H-pyrazolo[1,5-a]pyrazin-4-one] | < 300 | < 300 | 300 to 3000

Compound | IC50 [4] [nM] | IC50 [1] [nM] | IC50 [2] [nM] | EC50 [3] [nM]
COc1ccc(-c2cn3cccc3c(=O)[nH]2)cc1 [Compound A7, 3-(4-methoxy-phenyl)-2H-pyrrolo[1,2-a]pyrazin-1-one] | 300 to 3000 | < 300 | 300 to 3000 | 3000 to 50000
O=c1[nH]c(-c2ccc(C(F)(F)F)cc2)cn2cccc12 [Compound A13, 3-(4-trifluoromethyl-phenyl)-2H-pyrrolo[1,2-a]pyrazin-1-one] | 300 to 3000 | 300 to 3000 | < 300 | 300 to 3000
